# Experimental data from patent US9949486B2, “Agrochemical composition comprising a N,N#-disubstituted (thio)urea for the improvement of crop productivity” (Crop Intellect Ltd., priority 2014, dated 2018).
# Experiments:
# Assay type in all cases: in vivo
# Tomatoes = Tomatoes trial under glass, foliar treatment; details: equivalent of 5 lt/ha
# Experimental: (§1) Lettuce, beans, wheat and tomatoes were selected as plants to test the efficacy of the invention. Short term crops were grown in the greenhouse to ensure controlled condition and long term crops were grown outdoors in replicated trials. All relevant parameters to evaluate efficacy were tested including chlorophyll content, sugar levels, Mg and Fe tissue content, yield and quality characteristics. All trials were performed to good experimental practice (GEP) standards with adequate replication to conform to statistical comparisons. Environmental condition were monitored and kept the same between treatments for evaluation. John Innes soil based compost with low nutrient contents was used for the experiments and sieved to ensure uniformity. The applications were made to be applied at the equivalent of 5 lt/ha of end product in 180 lt of water. Treatments were administered foliarly just before runoff point. The magnesium and iron were in the form of Sulphate.
# The trial on tomatoes under glass had shown a significant increase in yield and quality characteristics with the application of the present invention. […] The internode length reduced on average by 20% which is desirable for tomato plants grown under glass due to the infrastructure restrictions and efforts towards vegetative growth.
# Beans = Beans greenhouse trial, foliar treatment; details: equivalent of 5 lt/ha
# Experimental: as §1, with “Sulphate. […] Larger plants expressed as weight per plant was observed together with an increase in chlorophyll content, Mg and Fe content in the plant tissue and leaf diameter (which promotes resource capture). A reduction in internode length was also observed which is favourable for many greenhouse and outdoor vegetable crops.” for “Sulphate.”
# Lettuce = Lettuce greenhouse trial, foliar treatment
# Experimental: as §1
# [1] = lettuce, foliar, equivalent of 5 lt/ha
smiles,measurement,setting,value
"O=C(Nc1ccccc1)Nc1ccccc1 [DPU, 1,3-diphenylurea]",Yield,Tomatoes; average fruit fresh weight,132 g
same,Chlorophyll (mg/cm^2),Tomatoes,0.031 mg/cm^2
same,Firmness (turgor MPa),Tomatoes,0.08 MPa
same,Internode length,Tomatoes,8.1
same,Sugar level (%),Tomatoes,6.8%
same,Fe content,Beans; beans plant tissue,86 mg/kg
same,Mg content (%),Beans; beans plant tissue,0.42%
same,Chlorophyll (mg/cm^2),Beans; beans,0.025 mg/cm^2
same,Internode length,Beans; beans,7
same,Leaf diameter (cm),Beans; beans,7.8 cm
same,Yield,"Beans; beans, fresh weight of above ground plant at 6 wks (st. error ±10)",364 g
same,Yield,"Lettuce; lettuce fresh weight (yield st. error ±8), foliar, equivalent of 5 lt/ha of end product in 180 lt of water",213 g
same,Fe content (mg/kg dw),"Lettuce; lettuce tissue, dry weight, foliar, equivalent of 5 lt/ha",254 mg/kg dw
same,Mg content (mg/kg fw),"Lettuce; lettuce tissue, fresh weight, foliar, equivalent of 5 lt/ha",480 mg/kg fw
same,Chlorophyll (mg/cm^2),Lettuce; [1],0.029 mg/cm^2
same,Leaf number,Lettuce; [1],28
same,Sugar level (%),Lettuce; [1],5.5%
same,Weight loss (%),"Lettuce; lettuce, weight loss after 7 days in ambient temperature (indication of shelf life)",22%
